Experimental data taken from patent US8835476B2, “Synthesis of novel antimicrobials” (priority 2005, dated 2014).

Columns and labels:
Type in all cases: cell-based
[1] = test system: E. coli clinical isolates; assay: Broth microdilution MIC, clinical isolate strains (NAUTICA); details: Table 4B; each table row is one clinical isolate; unit assumed
Method in brief: (§1)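 Clinical organisms, randomly drawn NAUTICA urinary isolates, and ATCC reference strains tested by NCCLS M7-A6 broth microdilution at 5×10^5 CFU/ml. Incubation 16 to 20 hours, 35° C, ambient air; MIC defined as lowest concentration without visible growth.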

[2] = test system: E. aerogenes clinical isolates; assay: as above; details: Table 4B; each table row is one clinical isolate; unit assumed
Method in brief: as §1

[3] = test system: S. marcescens clinical isolates; assay: as above; details: Table 4B; each table row is one clinical isolate; unit assumed
Method in brief: as §1

[4] = test system: A. baumanii clinical isolates; assay: as above; details: Table 4B; each table row is one clinical isolate; unit assumed
Method in brief: as §1

[5] = test system: P. stuartii clinical isolates; assay: as above; details: Table 4B; each table row is one clinical isolate; unit assumed
Method in brief: as §1

[6] = test system: K. pneumoniae clinical isolates; assay: as above; details: Table 4B; each table row is one clinical isolate; unit assumed
Method in brief: as §1

[7] = test system: P. vulgaris clinical isolates; assay: as above; details: Table 4B; each table row is one clinical isolate; unit assumed
Method in brief: as §1

[8] = test system: C. freundii clinical isolates; assay: as above; details: Table 4B; each table row is one clinical isolate; in µg/mL (unit assumed)
Method in brief: as §1

[9] = test system: S. liquifaciens clinical isolates; assay: as above; details: Table 4B; each table row is one clinical isolate; unit assumed
Method in brief: as §1

[10] = test system: P. mirabilis clinical isolates; assay: as above; details: Table 4B; each table row is one clinical isolate; unit assumed
Method in brief: as §1

[11] = test system: B. cepacia clinical isolates; assay: as above; details: Table 4B; each table row is one clinical isolate; unit assumed
Method in brief: as §1

[12] = test system: C. amalonaticus clinical isolates; assay: as above; details: Table 4B; each table row is one clinical isolate; unit assumed
Method in brief: as §1

[13] = test system: S. maltophilia clinical isolates; assay: as above; details: Table 4B; each table row is one clinical isolate; unit assumed
Method in brief: as §1

[14] = test system: P. retgerri clinical isolates; assay: as above; details: Table 4B; each table row is one clinical isolate; unit assumed
Method in brief: as §1

[15] = test system: K. oxytoca clinical isolates; assay: as above; details: Table 4B; each table row is one clinical isolate; unit assumed
Method in brief: as §1

[16] = test system: C. koseril clinical isolates; assay: as above; details: Table 4B; each table row is one clinical isolate; unit assumed
Method in brief: as §1

[17] = test system: E. cloacae clinical isolates; assay: as above; details: Table 4B; each table row is one clinical isolate; unit assumed
Method in brief: as §1

[18] = test system: M. morganii clinical isolates; assay: as above; details: Table 4B; each table row is one clinical isolate; unit assumed
Method in brief: as §1

[19] = test system: P. rettgeri CAP; assay: Broth microdilution MIC, reference strains; details: Providencia rettgeri; P. rettgeri (CAP in Table 1); read-out: MIC (growth inhibition, microdilution method)
Method in brief: as §1

[20] = test system: B. cepacia ATCC 25416; assay: Broth microdilution MIC, ATCC strains; details: Burkholderia cepacia, ATCC25416; B. cepacia ATCC 25416; read-out: MIC (growth inhibition, microdilution method)
Method in brief: as §1

[21] = test system: S. aureus ATCC 29213; assay: Broth microdilution MIC, ATCC strains; details: Staphylococcus aureus, ATCC29213, S. aureus ATCC 29213; read-out: MIC (growth inhibition, microdilution method)
Method in brief: as §1

[22] = test system: K. pneumoniae ATCC 13883; assay: Broth microdilution MIC, ATCC strains; details: Klebsiella pneumoniae, ATCC13883; K. pneumoniae ATCC 13883; read-out: MIC (growth inhibition, microdilution method)
Method in brief: as §1

[23] = test system: E. coli ATCC 25922; assay: Broth microdilution MIC, ATCC strains; details: Escherichia coli, ATCC25922, E. coli ATCC 25922; read-out: MIC (growth inhibition, microdilution method)
Method in brief: as §1

[24] = test system: P. mirabilis ATCC 29245; assay: Broth microdilution MIC, ATCC strains; details: Proteus mirabilis, ATCC29245; P. mirabilis ATCC 29245; read-out: MIC (growth inhibition, microdilution method)
Method in brief: as §1

[25] = test system: S. liquefaciens ATCC 27592; assay: Broth microdilution MIC, ATCC strains; details: S. liquefaciens ATCC 27592; read-out: MIC (growth inhibition, microdilution method)
Method in brief: as §1

[26] = test system: S. saprophyticus ATCC 15305; assay: Broth microdilution MIC, ATCC strains; details: Staphylococcus saprophyticus, ATCC15305; S. saprophyticus ATCC 15305; read-out: MIC (growth inhibition, microdilution method)
Method in brief: as §1

[27] = test system: K. oxytoca ATCC 49131; assay: Broth microdilution MIC, ATCC strains; details: Klebsiella oxytoca, ATCC49131; K. oxytoca ATCC 49131; read-out: MIC (growth inhibition, microdilution method)
Method in brief: as §1

[28] = test system: E. cloacae ATCC 23355; assay: Broth microdilution MIC, ATCC strains; details: Enterobacter cloacae, ATCC23355; E. cloacae ATCC 23355; read-out: MIC (growth inhibition, microdilution method)
Method in brief: as §1

[29] = test system: Ps. aeruginosa ATCC 27853; assay: Broth microdilution MIC, ATCC strains; details: Pseudomonas aeruginosa, ATCC27853; Ps. aeruginosa ATCC 27853; read-out: MIC (growth inhibition, microdilution method)
Method in brief: as §1

[30] = test system: A. anitratus ATCC 19606; assay: Broth microdilution MIC, ATCC strains; details: Acinetobacter calcoaceticus, ATCC19606; A. anitratus ATCC 19606; read-out: MIC (growth inhibition, microdilution method)
Method in brief: as §1

[31] = test system: E. aerogenes ATCC 13048; assay: Broth microdilution MIC, ATCC strains; details: Klebsiella aerogenes, ATCC13048; E. aerogenes ATCC 13048; read-out: MIC (growth inhibition, microdilution method)
Method in brief: as §1

SMILES | MIC, E. COLI [1] [mg/L] | MIC, E. AEROGENES [2] [mg/L] | MIC, S. MARCESCENS [3] [mg/L] | MIC, A. BAUMANII [4] [mg/L] | MIC, P. STUARTII [5] [mg/L] | MIC, K. PNEUMONIAE [6] [mg/L] | MIC, P. VULGARIS [7] [mg/L] | MIC, C. FREUNDII [8] | MIC, S. LIQUEFACIENS [9] [mg/L] | MIC, P. MIRABILIS [10] [mg/L] | MIC, B. CEPACIA [11] [mg/L] | MIC, C. AMALONATICUS [12] [mg/L] | MIC, S. MALTOPHILIA [13] [mg/L] | MIC, P. RETTGERI [14] [mg/L] | MIC, K. OXYTOCA [15] [mg/L] | MIC, C. KOSERI [16] [mg/L] | MIC, E. CLOACAE [17] [mg/L] | MIC, M. MORGANII [18] [mg/L] | MIC [19] [mg/L] | MIC [20] [mg/L] | also measured
Cn1nnnc1-c1cc(-c2ccc(F)cc2)sc1-c1ccc(F)cc1 [DNM-133, 5-(2,5-Bis(4-fluorophenyl)thiophen-3-yl)-1-methyl-1H-tetrazole] | > 16 | > 16 | > 16 | > 16 | > 16 | > 16 | > 16 | >16 | > 16 | > 16 | > 16 | > 16 | > 16 | > 16 | > 16 | > 16 | > 16 | > 16 | > 16 | > 16 | MIC [21]: > 16 mg/L; MIC [22]: > 16 mg/L; MIC [23]: > 16 mg/L; MIC [24]: > 16 mg/L; MIC [25]: > 16 mg/L; MIC [26]: > 16 mg/L; MIC [27]: > 16 mg/L; MIC [28]: > 16 mg/L; MIC [29]: > 16 mg/L; MIC [30]: > 16 mg/L; MIC [31]: > 16 mg/L
O=C(O)c1sc(-c2ccc(F)cc2)cc1-c1nnn[nH]1 [DNM-141, 5-(4-Fluoro-phenyl)-3-(1H-tetrazol-5-yl)-thiophene-2-carboxylic acid] | > 16 | > 16 | > 16 | > 16 | > 16 | > 16 | > 16 | >16 | > 16 | > 16 | > 16 | > 16 | > 16 | > 16 | > 16 | > 16 | > 16 | > 16 | > 16 | > 16 | MIC [21]: > 16 mg/L; MIC [22]: > 16 mg/L; MIC [23]: > 16 mg/L; MIC [24]: > 16 mg/L; MIC [25]: > 16 mg/L; MIC [26]: > 16 mg/L; MIC [27]: > 16 mg/L; MIC [28]: > 16 mg/L; MIC [29]: > 16 mg/L; MIC [30]: > 16 mg/L; MIC [31]: > 16 mg/L
Cn1nnc(-c2cc(-c3ccc(F)cc3)sc2C(=O)O)n1 [DNM-142, 5-(4-Fluoro-phenyl)-3-(2-methyl-2H-tetrazol-5-yl)-thiophene-2-carboxylic acid] | > 16 | > 16 | > 16 | > 16 | > 16 | > 16 | > 16 | >16 | > 16 | > 16 | > 16 | > 16 | > 16 | > 16 | > 16 | > 16 | > 16 | > 16 | > 16 | > 16 | MIC [21]: > 16 mg/L; MIC [22]: > 16 mg/L; MIC [23]: > 16 mg/L; MIC [24]: > 16 mg/L; MIC [25]: > 16 mg/L; MIC [26]: > 16 mg/L; MIC [27]: > 16 mg/L; MIC [28]: > 16 mg/L; MIC [29]: > 16 mg/L; MIC [30]: > 16 mg/L; MIC [31]: > 16 mg/L
Cn1nnnc1-c1cc(-c2ccc(F)cc2)sc1C(=O)O [DNM-143, 5-(4-Fluoro-phenyl)-3-(1-methyl-1H-tetrazol-5-yl)-thiophene-2-carboxylic acid] | > 8 | > 8 | > 8 | > 8 | > 8 | > 8 | > 8 | >8 | > 8 | > 8 | > 8 | > 8 | > 8 | > 8 | > 8 | > 8 | > 8 | > 8 | > 8 | > 8 | MIC [21]: > 8 mg/L; MIC [22]: > 8 mg/L; MIC [23]: > 8 mg/L; MIC [24]: > 8 mg/L; MIC [25]: > 8 mg/L; MIC [26]: > 8 mg/L; MIC [27]: > 8 mg/L; MIC [28]: > 8 mg/L; MIC [29]: > 8 mg/L; MIC [30]: > 8 mg/L; MIC [31]: > 8 mg/L
COC(=O)c1sc(-c2ccc(F)cc2)cc1-c1nnn(C)n1 [DNM-144, 5-(4-fluoro-phenyl)-3-(2-methyl-2H-tetrazol-5-yl)-thiophene-2-carboxylic acid methyl ester] | > 8 | > 8 | > 8 | > 8 | > 8 | > 8 | > 8 | >8 | > 8 | > 8 | > 8 | > 8 | > 8 | > 8 | > 8 | > 8 | > 8 | > 8 | > 8 | > 8 | MIC [21]: > 8 mg/L; MIC [22]: > 8 mg/L; MIC [23]: > 8 mg/L; MIC [24]: > 8 mg/L; MIC [25]: > 8 mg/L; MIC [26]: > 8 mg/L; MIC [27]: > 8 mg/L; MIC [28]: > 8 mg/L; MIC [29]: > 8 mg/L; MIC [30]: > 8 mg/L; MIC [31]: > 8 mg/L
COC(=O)c1sc(-c2ccc(F)cc2)cc1-c1nnnn1C [DNM-145, 5-(4-Fluoro-phenyl)-3-(1-methyl-1H-tetrazol-5-yl)-thiophene-2-carboxylic acid methyl ester] | > 4 | > 4 | > 4 | > 4 | > 4 | > 4 | > 4 | >4 | > 4 | > 4 | > 4 | > 4 | > 4 | > 4 | > 4 | > 4 | > 4 | > 4 | > 4 | > 4 | MIC [21]: > 4 mg/L; MIC [22]: > 4 mg/L; MIC [23]: > 4 mg/L; MIC [24]: > 4 mg/L; MIC [25]: > 4 mg/L; MIC [26]: > 4 mg/L; MIC [27]: > 4 mg/L; MIC [28]: > 4 mg/L; MIC [29]: > 4 mg/L; MIC [30]: > 4 mg/L; MIC [31]: > 4 mg/L
